Measured values: US9926282B2, “Phthalazinones and isoquinolinones as rock inhibitors” (BRISTOL-MYERS SQUIBB COMPANY, priority 2013, dated 2018)

What was measured:
[1] = molecular target: ROCK1 (Homo sapiens (Human), UniProt Q13464); assay: ROCK assay (LABCHIP peptide phosphorylation), ROCK1; format: biochemical; conditions: 5 μM ATP, 1.5 μM peptide substrate; read-out: ROCK1 IC50
[2] = molecular target: ROCK2 (Homo sapiens (Human), UniProt O75116); assay: ROCK assay (LABCHIP peptide phosphorylation), ROCK2; format: biochemical; conditions: 5 μM ATP, 1.5 μM peptide substrate
ROCK2, sequence (O75116 whole entry, species assumed): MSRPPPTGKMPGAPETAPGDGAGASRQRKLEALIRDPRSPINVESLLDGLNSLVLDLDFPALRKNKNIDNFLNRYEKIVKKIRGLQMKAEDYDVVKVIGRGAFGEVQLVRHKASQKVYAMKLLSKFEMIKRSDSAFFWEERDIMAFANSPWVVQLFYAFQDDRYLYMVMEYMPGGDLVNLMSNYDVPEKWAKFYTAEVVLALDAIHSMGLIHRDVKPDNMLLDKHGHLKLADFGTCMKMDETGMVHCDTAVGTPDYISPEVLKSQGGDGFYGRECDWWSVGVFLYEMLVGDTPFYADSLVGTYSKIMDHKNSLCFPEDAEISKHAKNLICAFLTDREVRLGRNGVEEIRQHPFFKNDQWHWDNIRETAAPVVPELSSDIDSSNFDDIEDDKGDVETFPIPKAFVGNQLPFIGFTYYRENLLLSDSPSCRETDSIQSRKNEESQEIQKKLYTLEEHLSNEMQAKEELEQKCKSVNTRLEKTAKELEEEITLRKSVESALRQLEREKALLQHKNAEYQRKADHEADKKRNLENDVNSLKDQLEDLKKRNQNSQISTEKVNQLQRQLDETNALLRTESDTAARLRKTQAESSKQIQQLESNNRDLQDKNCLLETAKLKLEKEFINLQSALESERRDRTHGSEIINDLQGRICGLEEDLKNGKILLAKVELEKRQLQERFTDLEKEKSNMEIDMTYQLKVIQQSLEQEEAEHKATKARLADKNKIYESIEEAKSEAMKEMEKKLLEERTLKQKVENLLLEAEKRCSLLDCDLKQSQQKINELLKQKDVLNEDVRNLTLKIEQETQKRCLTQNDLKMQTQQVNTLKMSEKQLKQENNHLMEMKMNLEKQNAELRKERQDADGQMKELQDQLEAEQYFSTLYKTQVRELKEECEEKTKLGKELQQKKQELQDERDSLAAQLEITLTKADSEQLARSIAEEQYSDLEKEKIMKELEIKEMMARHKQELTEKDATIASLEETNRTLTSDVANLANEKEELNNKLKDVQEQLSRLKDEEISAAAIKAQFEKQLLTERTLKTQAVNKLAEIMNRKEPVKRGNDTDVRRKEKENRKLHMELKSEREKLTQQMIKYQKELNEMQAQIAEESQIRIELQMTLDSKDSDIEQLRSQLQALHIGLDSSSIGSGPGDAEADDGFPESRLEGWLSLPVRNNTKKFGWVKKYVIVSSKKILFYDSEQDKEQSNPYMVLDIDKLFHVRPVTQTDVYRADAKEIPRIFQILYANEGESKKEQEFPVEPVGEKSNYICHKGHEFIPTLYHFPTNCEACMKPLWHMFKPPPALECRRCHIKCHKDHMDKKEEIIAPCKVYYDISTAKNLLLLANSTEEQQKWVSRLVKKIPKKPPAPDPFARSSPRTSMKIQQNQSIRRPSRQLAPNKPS

ROCK1, sequence (Q13464 whole entry, species assumed): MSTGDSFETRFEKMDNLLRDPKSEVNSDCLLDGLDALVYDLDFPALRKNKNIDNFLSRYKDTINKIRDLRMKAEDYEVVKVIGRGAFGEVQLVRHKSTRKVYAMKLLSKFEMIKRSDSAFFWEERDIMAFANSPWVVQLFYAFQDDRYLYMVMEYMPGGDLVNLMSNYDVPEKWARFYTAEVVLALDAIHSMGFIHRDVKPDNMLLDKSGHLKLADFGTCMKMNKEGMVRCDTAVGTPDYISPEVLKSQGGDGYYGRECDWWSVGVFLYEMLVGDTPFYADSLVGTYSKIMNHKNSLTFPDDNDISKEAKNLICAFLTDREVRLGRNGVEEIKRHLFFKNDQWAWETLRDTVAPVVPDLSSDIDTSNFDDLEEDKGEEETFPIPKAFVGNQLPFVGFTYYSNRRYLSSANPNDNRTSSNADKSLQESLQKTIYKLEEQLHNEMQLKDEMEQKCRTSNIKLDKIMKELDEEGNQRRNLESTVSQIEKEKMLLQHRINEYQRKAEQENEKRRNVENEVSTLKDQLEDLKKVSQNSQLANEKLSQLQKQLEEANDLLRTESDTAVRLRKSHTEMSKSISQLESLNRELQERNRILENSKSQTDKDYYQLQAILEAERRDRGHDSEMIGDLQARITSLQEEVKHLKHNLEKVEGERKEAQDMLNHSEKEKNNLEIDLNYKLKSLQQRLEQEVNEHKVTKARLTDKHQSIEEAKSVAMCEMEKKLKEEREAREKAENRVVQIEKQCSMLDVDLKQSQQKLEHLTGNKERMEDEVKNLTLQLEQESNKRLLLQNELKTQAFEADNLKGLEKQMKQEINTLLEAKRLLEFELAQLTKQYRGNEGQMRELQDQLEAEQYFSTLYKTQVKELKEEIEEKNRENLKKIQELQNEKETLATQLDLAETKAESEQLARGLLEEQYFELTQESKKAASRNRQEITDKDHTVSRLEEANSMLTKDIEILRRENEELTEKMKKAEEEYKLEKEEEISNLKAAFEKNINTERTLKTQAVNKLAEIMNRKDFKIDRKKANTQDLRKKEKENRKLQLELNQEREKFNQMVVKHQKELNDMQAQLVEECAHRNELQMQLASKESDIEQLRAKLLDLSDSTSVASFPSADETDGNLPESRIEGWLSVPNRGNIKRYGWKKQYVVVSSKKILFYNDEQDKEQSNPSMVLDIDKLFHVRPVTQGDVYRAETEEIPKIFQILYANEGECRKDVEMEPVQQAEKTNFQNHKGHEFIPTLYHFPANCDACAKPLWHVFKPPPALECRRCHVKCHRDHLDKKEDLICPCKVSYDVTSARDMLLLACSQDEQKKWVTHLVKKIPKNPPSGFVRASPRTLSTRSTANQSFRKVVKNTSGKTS

Row | Compound | IC50 [1] [nM] | IC50 [2] [nM] | IC50 ([2]; given as number) [nM]
1 | O=C(Nc1ccc(-c2n[nH]c(=O)c3ccccc23)cc1)C1CC(c2ccccc2)=NO1 (stereo not drawn) [Example 196, N-[4-(4-oxo-3,4-dihydrophthalazin-1-yl)phenyl]-3-phenyl-4,5-dihydro-1,2-oxazole-5-carboxamide] | 1000 to 50000 | 101 to 1000 | 
2 | O=C(Nc1ccc(-c2n[nH]c(=O)c3ccccc23)cc1)c1c2ccccc2nn1CC1COC1 [Example 143, 2-(oxetan-3-ylmethyl)-N-[4-(4-oxo-3,4-dihydrophthalazin-1-yl)phenyl]-2H-indazole-3-carboxamide] | 1000 to 50000 | 1000 to 50000 | 
3 | O=C(Nc1ccc(-c2n[nH]c(=O)c3ccccc23)cc1)c1nc2ncccn2n1 [Example 112, N-[4-(4-oxo-3,4-dihydrophthalazin-1-yl)phenyl]-[1,2,4]triazolo[1,5-a]pyrimidine-2-carboxamide] | 1000 to 50000 | 101 to 1000 | 
4 | COc1ccc2[nH]nc(C(=O)Nc3ccc(-c4n[nH]c(=O)c5ccccc45)cc3)c2c1 [Example 123, 5-methoxy-N-[4-(4-oxo-3,4-dihydrophthalazin-1-yl)phenyl]-1H-indazole-3-carboxamide] | 101 to 1000 | 0.1 to 100 | 
5 | COc1ccc2c(-c3ccc(NC(=O)c4nn(CC(C)(C)O)c5ccccc45)cc3)n[nH]c(=O)c2c1 [Example 369, 1-(2-Hydroxy-2-methylpropyl)-N-(4-(6-methoxy-4-oxo-3,4-dihydrophthalazin-1-yl)phenyl)-1H-indazole-3-carboxamide] | 101 to 1000 | 0.1 to 100 | 
6 | CC(C)(O)Cn1nc(C(=O)Nc2ccc(-c3n[nH]c(=O)c4ccccc34)c(Cl)c2)c2ccccc21 [Example 315, N-[3-chloro-4-(4-oxo-3,4-dihydrophthalazin-1-yl)phenyl]-1-(2-hydroxy-2-methylpropyl)-1H-indazole-3-carboxamide] | 0.1 to 100 | 0.1 to 100 | 
7 | Cc1cc(CC(=O)N2CCc3ccccc32)ccc1-c1n[nH]c(=O)c2ccccc12 [Example 259, 4-(4-(2-(Indolin-1-yl)-2-oxoethyl)-2-methylphenyl)phthalazin-1(2H)-one] | 101 to 1000 | 0.1 to 100 | 
8 | CC(C)(C)n1cc(NC(=O)c2ccncc2)c(C(=O)Nc2ccc(-c3n[nH]c(=O)c4ccccc34)cc2)n1 [Example 234, N-(1-tert-butyl-3-{[4-(4-oxo-3,4-dihydrophthalazin-1-yl)phenyl]carbamoyl}-1H-pyrazol-4-yl)pyridine-4-carboxamide] | 101 to 1000 | 0.1 to 100 | 
9 | O=C(Nc1ccc(-c2c[nH]c(=O)c3ccccc23)cc1)c1nc2c(s1)CCCC2 [Example 246, N-(4-(1-Oxo-1,2-dihydroisoquinolin-4-yl)phenyl)-4,5,6,7-tetrahydrobenzo[d]thiazole-2-carboxamide] | 0.1 to 100 | 0.1 to 100 | 
10 | CC1Cc2ccccc2N1C(=O)Cc1ccc(-c2n[nH]c(=O)c3ccccc23)cc1 (stereo not drawn) [Example 40, 4-{4-[2-(2-methyl-2,3-dihydro-1H-indol-1-yl)-2-oxoethyl]phenyl}-1,2-dihydrophthalazin-1-one] | 101 to 1000 | 0.1 to 100 | 
11 | O=C(Nc1ccc(-c2n[nH]c(=O)c3ccccc23)cc1)C1CCN(c2ccccc2)C1=O (stereo not drawn) [Example 215, 2-oxo-N-[4-(4-oxo-3,4-dihydrophthalazin-1-yl)phenyl]-1-phenylpyrrolidine-3-carboxamide] | 101 to 1000 | 101 to 1000 | 
12 | CN1CCN(C(=O)COc2ccc3c(c2)N(C(=O)Cc2ccc(-c4n[nH]c(=O)c5ccccc45)cc2)CC3)CC1 [Example 299, 4-(4-(2-(6-(2-(4-Methylpiperazin-1-yl)-2-oxoethoxy)indolin-1-yl)-2-oxoethyl)phenyl)phthalazin-1(2H)-one] | 101 to 1000 | 0.1 to 100 | 
13 | CN1CCc2nc(C(=O)Nc3ccc(-c4n[nH]c(=O)c5ccccc45)cc3)sc2C1 [Example 51, 5-methyl-N-[4-(4-oxo-3,4-dihydrophthalazin-1-yl)phenyl]-4H,5H,6H, 7H-[1,3]thiazolo[5,4-c] pyridine-2-carboxamide] | 1000 to 50000 | 0.1 to 100 | 
14 | O=c1[nH]nc(-c2ccc(Nc3nc(-c4ccccc4)cs3)cc2)c2ccccc12 [Example 74, 4-(4-((4-Phenylthiazol-2-yl)amino)phenyl)phthalazin-1(2H)-one] | 1000 to 50000 | 0.1 to 100 | 
15 | O=C(Nc1ccc(-c2n[nH]c(=O)c3ccccc23)c(CO)c1)c1cnc2ccccn12 [Example 365, N-(3-(Hydroxymethyl)-4-(4-oxo-3,4-dihydrophthalazin-1-yl)phenyl)imidazo[1,2-a]pyridine-3-carboxamide] | 1000 to 50000 |  | 222
16 | COCCOc1ccc2c(C(=O)Nc3ccc(-c4n[nH]c(=O)c5ccccc45)cc3)cnn2c1 [Example 175, 6-(2-methoxyethoxy)-N-[4-(4-oxo-3,4-dihydrophthalazin-1-yl)phenyl]pyrazolo[1,5-a]pyridine-3-carboxamide] | 0.1 to 100 | 0.1 to 100 | 
17 | CC(C)n1nc(C(=O)Nc2ccc(-c3n[nH]c(=O)c4ccccc34)cc2)c2ccccc21 [Example 132, N-[4-(4-oxo-3,4-dihydrophthalazin-1-yl)phenyl]-1-(propan-2-yl)-1H-indazole-3-carboxamide] | 0.1 to 100 | 0.1 to 100 | 

Row | Compound | IC50 [1] [nM] | IC50 [2] [nM] | IC50 ([2]; given as number) [nM]
18 | O=C(Nc1ccc(-c2n[nH]c(=O)c3ccccc23)cc1)c1cnn(Cc2ccccc2)c1 [Example 200, 1-benzyl-N-[4-(4-oxo-3,4-dihydrophthalazin-1-yl)phenyl]-1H-pyrazole-4-carboxamide] | 0.1 to 100 | 0.1 to 100 | 
19 | CC(C)N1CC(C(=O)Nc2ccc(-c3n[nH]c(=O)c4ccccc34)cc2)CC1=O (stereo not drawn) [Example 218, 5-oxo-N-[4-(4-oxo-3,4-dihydrophthalazin-1-yl)phenyl]-1-(propan-2-yl)pyrrolidine-3-carboxamide] | 1000 to 50000 | 101 to 1000 | 
20 | O=C(Oc1ccc(-c2n[nH]c(=O)c3ccccc23)cc1)N1Cc2ccc(F)cc2C1 [Example 71, 4-(4-Oxo-3,4-dihydrophthalazin-1-yl)phenyl 5-fluoroisoindoline-2-carboxylate] | 1000 to 50000 | 0.1 to 100 | 
21 | CC(C)(O)Cn1cc(C(=O)Nc2ccc(-c3n[nH]c(=O)c4ccccc34)cc2)cn1 [Example 377, 1-(2-Hydroxy-2-methylpropyl)-N-(4-(4-oxo-3,4-dihydrophthalazin-1-yl)phenyl)-1H-pyrazole-4-carboxamide] | 1000 to 50000 | 0.1 to 100 | 
22 | COc1ccc2c(c1)CN(C(=O)Oc1ccc(-c3n[nH]c(=O)c4ccccc34)cc1)C2 [Example 70, 4-(4-Oxo-3,4-dihydrophthalazin-1-yl)phenyl 5-methoxyisoindoline-2-carboxylate] | 1000 to 50000 | 0.1 to 100 | 
23 | COc1ccc2c(=O)[nH]cc(-c3ccc(CC(=O)N4CCc5ccc(OCC(C)(C)O)cc54)cc3)c2c1 [Example 289, 4-(4-(2-(6-(2-Hydroxy-2-methylpropoxy)indolin-1-yl)-2-oxoethyl)phenyl)-6-methoxyisoquinolin-1(2H)-one] | 0.1 to 100 | 0.1 to 100 | 
24 | O=C(Nc1ccc(-c2n[nH]c(=O)c3ccccc23)c(CO)c1)c1nn(CC2CCCO2)c2ccccc12 (stereo not drawn) [Example 367, N-(3-(Hydroxymethyl)-4-(4-oxo-3,4-dihydrophthalazin-1-yl)phenyl)-1-((tetrahydrofuran-2-yl)methyl)-1H-indazole-3-carboxamide] | 1000 to 50000 | 0.1 to 100 | 
25 | Cn1nc(C(=O)Nc2ccc(-c3n[nH]c(=O)c4ccccc34)cc2)c2ccccc21 [Example 98, 1-methyl-N-[4-(4-oxo-3,4-dihydrophthalazin-1-yl)phenyl]-1H-indazole-3-carboxamide] | 0.1 to 100 | 0.1 to 100 | 
26 | O=C(Nc1ccc(-c2n[nH]c(=O)c3ccccc23)cc1)c1nn(Cc2ccccc2)c2ccccc12 [Example 99, 1-benzyl-N-[4-(4-oxo-3,4-dihydrophthalazin-1-yl)phenyl]-1H-indazole-3-carboxamide] | 0.1 to 100 | 0.1 to 100 | 
27 | O=C(Cc1ccc(-c2n[nH]c(=O)c3ccccc23)cc1)N1CCN(Cc2ccccc2)CC1 [Example 12, 4-{4-[2-(4-benzylpiperazin-1-yl)-2-oxoethyl]phenyl}-1,2-dihydrophthalazin-1-one] | 1000 to 50000 | 1000 to 50000 | 
28 | Cc1cc(NC(=O)c2nn(CC(C)(C)O)c3ccccc23)ccc1-c1n[nH]c(=O)c2ccccc12 [Example 301, 1-(2-hydroxy-2-methylpropyl)-N-[3-methyl-4-(4-oxo-3,4-dihydrophthalazin-1-yl)phenyl]-1H-indazole-3-carboxamide] | 0.1 to 100 | 0.1 to 100 | 
29 | O=C(Nc1ccc(-c2n[nH]c(=O)c3ccccc23)cc1)c1ccnn1-c1ccccc1 [Example 236, N-[4-(4-oxo-3,4-dihydrophthalazin-1-yl)phenyl]-1-phenyl-1H-pyrazole-5-carboxamide] | 101 to 1000 | 0.1 to 100 | 
30 | O=C(Nc1ccc(-c2n[nH]c(=O)c3ccccc23)cc1)c1ccn(-c2ccccc2)n1 [Example 226, N-[4-(4-oxo-3,4-dihydrophthalazin-1-yl)phenyl]-1-phenyl-1H-pyrazole-3-carboxamide] | 0.1 to 100 | 0.1 to 100 | 
31 | Cc1noc(-c2ccc(C(C)(C)O)cc2)c1C(=O)Nc1ccc(-c2n[nH]c(=O)c3ccccc23)cc1 [Example 223, 5-[4-(2-hydroxypropan-2-yl)phenyl]-3-methyl-N-[4-(4-oxo-3,4-dihydrophthalazin-1-yl)phenyl]-1,2-oxazole-4-carboxamide] | 0.1 to 100 | 0.1 to 100 | 
32 | COc1cc2c(-c3ccc(CC(=O)N4Cc5ccccc5C4)cc3)c[nH]c(=O)c2cc1OC [Example 255, 4-(4-(2-(Isoindolin-2-yl)-2-oxoethyl)phenyl)-6,7-dimethoxyisoquinolin-1(2H)-one] | 1000 to 50000 | 101 to 1000 | 
33 | Cc1ccccc1-n1ncc(C(=O)Nc2ccc(-c3n[nH]c(=O)c4ccccc34)cc2)c1C [Example 214, 5-methyl-1-(2-methylphenyl)-N-[4-(4-oxo-3,4-dihydrophthalazin-1-yl)phenyl]-1H-pyrazole-4-carboxamide] | 0.1 to 100 | 0.1 to 100 | 
